Laboratory results from the kinase profiling compilation of Christmann-Franck et al. (2016).

Legend:
Assay in all cases: radiometric filter-binding kinase assay, Kinaseprofiler
[1] = tested on: PHKG2 (human), P15735 [F290L]; details: ATP 10 µM
[2] = tested on: MAPKAPK5 (human), Q8IW41 [R291E]; details: ATP 15 µM
[3] = tested on: ROS1 (human), P08922 [V2262A]; details: ATP 200 µM
[4] = tested on: CSNK1G3 (human), Q9Y6M4 [K91E/R174G/E302D]; details: ATP 10 µM
[5] = tested on: GSK3B (human), P49841 [H350L]; details: ATP 15 µM
Chain of GSK3B (human), P49841 [H350L] (P49841 whole entry, looked up, stated change not applied): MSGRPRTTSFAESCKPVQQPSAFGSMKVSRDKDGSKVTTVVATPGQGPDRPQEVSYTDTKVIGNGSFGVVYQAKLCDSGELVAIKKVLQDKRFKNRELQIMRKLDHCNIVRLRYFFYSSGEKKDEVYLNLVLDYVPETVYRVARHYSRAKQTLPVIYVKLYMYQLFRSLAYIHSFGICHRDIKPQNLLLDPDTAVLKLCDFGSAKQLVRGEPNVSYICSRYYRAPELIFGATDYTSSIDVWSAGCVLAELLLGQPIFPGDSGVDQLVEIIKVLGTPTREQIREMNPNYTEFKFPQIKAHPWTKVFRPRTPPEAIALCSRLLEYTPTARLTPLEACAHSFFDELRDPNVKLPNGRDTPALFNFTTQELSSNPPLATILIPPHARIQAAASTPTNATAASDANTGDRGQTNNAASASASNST

[6] = tested on: AKT3 (human), Q9Y243 [S472D]; details: ATP 45 µM
Chain of AKT3 (human), Q9Y243 [S472D] (Q9Y243 whole entry S472D, looked up): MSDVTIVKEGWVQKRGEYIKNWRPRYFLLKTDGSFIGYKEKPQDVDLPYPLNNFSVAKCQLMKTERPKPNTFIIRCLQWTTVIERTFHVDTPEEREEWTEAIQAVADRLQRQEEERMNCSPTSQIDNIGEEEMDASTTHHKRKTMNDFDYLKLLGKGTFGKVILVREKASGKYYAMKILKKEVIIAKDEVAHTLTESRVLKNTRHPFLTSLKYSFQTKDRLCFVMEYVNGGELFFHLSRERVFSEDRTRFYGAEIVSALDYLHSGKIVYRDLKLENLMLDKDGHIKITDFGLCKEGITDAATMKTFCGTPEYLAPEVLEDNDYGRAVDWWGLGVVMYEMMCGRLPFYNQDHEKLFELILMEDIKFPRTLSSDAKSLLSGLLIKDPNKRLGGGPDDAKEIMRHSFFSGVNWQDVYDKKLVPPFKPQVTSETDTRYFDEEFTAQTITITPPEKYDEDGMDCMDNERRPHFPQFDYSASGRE

Chain of PHKG2 (human), P15735 [F290L] (P15735 whole entry F290L, looked up): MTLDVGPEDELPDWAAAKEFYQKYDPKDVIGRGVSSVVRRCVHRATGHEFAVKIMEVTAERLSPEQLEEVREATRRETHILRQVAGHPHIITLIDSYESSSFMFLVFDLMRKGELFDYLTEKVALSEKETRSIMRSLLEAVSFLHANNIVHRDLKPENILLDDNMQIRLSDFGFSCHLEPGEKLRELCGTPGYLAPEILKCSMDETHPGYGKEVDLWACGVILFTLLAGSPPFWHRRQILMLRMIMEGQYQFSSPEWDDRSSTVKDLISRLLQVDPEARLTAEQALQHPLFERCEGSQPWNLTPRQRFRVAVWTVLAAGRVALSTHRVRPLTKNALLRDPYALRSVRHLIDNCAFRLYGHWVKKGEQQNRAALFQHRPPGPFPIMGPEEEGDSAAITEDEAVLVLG
Chain of ROS1 (human), P08922 [V2262A] (P08922 whole entry, looked up, stated change not applied): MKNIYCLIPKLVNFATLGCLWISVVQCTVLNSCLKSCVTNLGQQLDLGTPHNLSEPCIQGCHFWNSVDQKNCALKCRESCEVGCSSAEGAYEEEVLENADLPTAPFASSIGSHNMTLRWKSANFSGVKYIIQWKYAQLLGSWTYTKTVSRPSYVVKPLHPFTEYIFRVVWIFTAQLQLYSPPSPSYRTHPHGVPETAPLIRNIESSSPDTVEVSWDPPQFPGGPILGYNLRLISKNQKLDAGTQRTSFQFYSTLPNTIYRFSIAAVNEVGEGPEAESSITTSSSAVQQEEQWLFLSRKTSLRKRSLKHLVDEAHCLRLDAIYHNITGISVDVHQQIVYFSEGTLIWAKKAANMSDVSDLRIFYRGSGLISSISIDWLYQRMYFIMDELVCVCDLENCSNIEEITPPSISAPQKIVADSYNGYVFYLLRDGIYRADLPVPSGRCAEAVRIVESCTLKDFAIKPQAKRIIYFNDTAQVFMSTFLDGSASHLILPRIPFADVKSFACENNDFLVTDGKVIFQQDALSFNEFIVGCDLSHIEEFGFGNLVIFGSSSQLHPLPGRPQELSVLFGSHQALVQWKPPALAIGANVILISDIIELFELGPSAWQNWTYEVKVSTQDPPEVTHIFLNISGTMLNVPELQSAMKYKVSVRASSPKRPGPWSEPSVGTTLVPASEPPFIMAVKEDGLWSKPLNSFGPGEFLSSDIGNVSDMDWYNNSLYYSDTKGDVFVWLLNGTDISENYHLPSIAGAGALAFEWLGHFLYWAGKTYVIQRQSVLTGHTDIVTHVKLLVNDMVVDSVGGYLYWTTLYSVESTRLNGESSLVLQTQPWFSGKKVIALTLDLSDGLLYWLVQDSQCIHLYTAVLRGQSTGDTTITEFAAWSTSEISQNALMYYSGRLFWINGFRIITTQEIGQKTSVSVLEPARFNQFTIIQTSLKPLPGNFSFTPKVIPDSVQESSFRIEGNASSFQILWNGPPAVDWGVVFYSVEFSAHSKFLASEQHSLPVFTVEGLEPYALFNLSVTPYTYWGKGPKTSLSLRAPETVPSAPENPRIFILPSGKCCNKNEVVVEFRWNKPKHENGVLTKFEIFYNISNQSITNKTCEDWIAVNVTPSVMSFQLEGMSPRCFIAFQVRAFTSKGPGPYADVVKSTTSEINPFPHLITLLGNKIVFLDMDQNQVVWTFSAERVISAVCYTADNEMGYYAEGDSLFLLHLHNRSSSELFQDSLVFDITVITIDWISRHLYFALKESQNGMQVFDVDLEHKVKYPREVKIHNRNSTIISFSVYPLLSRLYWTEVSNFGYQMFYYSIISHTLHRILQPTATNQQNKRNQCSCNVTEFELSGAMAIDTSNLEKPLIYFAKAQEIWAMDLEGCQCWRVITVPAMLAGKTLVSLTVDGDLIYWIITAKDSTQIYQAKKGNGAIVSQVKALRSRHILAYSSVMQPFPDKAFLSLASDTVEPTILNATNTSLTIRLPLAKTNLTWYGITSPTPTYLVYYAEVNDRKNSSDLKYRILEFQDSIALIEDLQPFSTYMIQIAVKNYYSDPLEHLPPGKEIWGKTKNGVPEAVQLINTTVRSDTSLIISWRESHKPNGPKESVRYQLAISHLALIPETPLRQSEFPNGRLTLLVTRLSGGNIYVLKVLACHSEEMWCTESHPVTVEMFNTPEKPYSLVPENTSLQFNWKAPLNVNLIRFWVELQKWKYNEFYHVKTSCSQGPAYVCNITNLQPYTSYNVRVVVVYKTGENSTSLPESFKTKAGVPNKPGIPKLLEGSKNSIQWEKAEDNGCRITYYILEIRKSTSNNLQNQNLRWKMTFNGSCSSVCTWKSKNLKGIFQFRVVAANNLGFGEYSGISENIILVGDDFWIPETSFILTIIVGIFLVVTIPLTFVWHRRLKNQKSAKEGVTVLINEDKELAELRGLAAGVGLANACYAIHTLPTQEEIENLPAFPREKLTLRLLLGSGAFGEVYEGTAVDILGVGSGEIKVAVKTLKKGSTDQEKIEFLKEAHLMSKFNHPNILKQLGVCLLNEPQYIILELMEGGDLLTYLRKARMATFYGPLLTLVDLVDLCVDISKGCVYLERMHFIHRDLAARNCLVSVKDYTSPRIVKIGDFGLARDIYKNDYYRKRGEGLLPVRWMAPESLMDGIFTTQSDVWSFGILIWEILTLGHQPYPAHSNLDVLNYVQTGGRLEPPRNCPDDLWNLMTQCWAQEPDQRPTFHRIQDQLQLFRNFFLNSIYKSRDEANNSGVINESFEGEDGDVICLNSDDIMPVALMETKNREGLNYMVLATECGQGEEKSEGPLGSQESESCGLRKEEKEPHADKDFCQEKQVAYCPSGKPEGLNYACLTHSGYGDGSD
Chain of MAPKAPK5 (human), Q8IW41 [R291E] (Q8IW41 whole entry, looked up, stated change not applied): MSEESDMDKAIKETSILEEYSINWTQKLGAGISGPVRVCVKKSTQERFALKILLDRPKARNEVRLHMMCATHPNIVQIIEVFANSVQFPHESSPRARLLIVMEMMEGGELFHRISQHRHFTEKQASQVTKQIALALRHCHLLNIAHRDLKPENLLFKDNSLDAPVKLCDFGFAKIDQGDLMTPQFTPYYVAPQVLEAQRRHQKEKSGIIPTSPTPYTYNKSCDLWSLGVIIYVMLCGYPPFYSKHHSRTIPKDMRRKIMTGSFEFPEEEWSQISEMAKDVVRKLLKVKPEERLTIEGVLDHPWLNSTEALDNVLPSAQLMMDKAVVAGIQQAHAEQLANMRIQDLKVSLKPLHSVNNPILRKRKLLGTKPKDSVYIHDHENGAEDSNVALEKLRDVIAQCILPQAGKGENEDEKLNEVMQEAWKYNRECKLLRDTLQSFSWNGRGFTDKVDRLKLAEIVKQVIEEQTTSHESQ
Chain of CSNK1G3 (human), Q9Y6M4 [K91E/R174G/E302D] (Q9Y6M4 whole entry, looked up, stated change not applied): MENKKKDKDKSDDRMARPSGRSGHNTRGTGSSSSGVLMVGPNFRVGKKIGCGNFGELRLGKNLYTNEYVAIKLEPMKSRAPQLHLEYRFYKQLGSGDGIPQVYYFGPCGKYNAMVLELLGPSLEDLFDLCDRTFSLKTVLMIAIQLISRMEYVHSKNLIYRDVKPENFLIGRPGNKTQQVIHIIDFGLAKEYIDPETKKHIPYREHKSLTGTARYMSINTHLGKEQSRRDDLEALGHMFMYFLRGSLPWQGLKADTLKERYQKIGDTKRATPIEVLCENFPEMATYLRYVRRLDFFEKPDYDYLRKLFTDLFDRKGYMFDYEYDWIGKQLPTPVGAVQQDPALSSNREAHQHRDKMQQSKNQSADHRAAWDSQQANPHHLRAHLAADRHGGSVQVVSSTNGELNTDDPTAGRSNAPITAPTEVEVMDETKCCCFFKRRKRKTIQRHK

SMILES	residual activity ([1]; compound 1.0 µM) [%]	residual activity ([2]; compound 10.0 µM) [%]	residual activity ([3]; compound 1.0 µM) [%]	residual activity ([3]; compound 10.0 µM) [%]	residual activity ([4]; compound 1.0 µM) [%]	residual activity ([4]; compound 10.0 µM) [%]	residual activity ([5]; compound 1.0 µM) [%]	residual activity ([5]; compound 10.0 µM) [%]	residual activity ([6]; compound 1.0 µM) [%]	residual activity ([6]; compound 10.0 µM) [%]	residual activity ([1]; compound 10.0 µM) [%]	residual activity ([2]; compound 1.0 µM) [%]
COC(=O)[C@]1(O)C[C@@H]2O[C@@]1(C)n1c3ccccc3c3c4c(c5c6ccccc6n2c5c31)C(=O)NC4	0	0	–	–	–	–	–	–	–	–	–	–
O=C1c2ccccc2-c2n[nH]c3cccc1c23	77	14	93	85	83	31	74	58	89	66	15	59
CN[C@@H]1C[C@H]2O[C@@](C)([C@@H]1OC)n1c3ccccc3c3c4c(c5c6ccccc6n2c5c31)C(=O)NC4	–	–	–	–	95	52	–	–	–	0	–	–

Further lines, results first:

residual activity ([1]; compound 1.0 µM) [%]	residual activity ([2]; compound 10.0 µM) [%]	residual activity ([3]; compound 1.0 µM) [%]	residual activity ([3]; compound 10.0 µM) [%]	residual activity ([4]; compound 1.0 µM) [%]	residual activity ([4]; compound 10.0 µM) [%]	residual activity ([5]; compound 1.0 µM) [%]	residual activity ([5]; compound 10.0 µM) [%]	residual activity ([6]; compound 1.0 µM) [%]	residual activity ([6]; compound 10.0 µM) [%]	residual activity ([1]; compound 10.0 µM) [%]	residual activity ([2]; compound 1.0 µM) [%]	SMILES
25	24	105	88	63	20	10	1	95	64	12	78	O=C1Nc2ccccc2/C1=C1\Nc2ccccc2\C1=N/O
–	–	–	–	–	–	–	–	–	–	100	–	O=C(Nc1cccc(Nc2nccc(Nc3cccc(C(F)(F)F)c3)n2)c1)C1CC1
